# Measurements reported in publication PMC12254266, “Multicolored sequential resonance energy transfer for detection of simultaneous ligand binding at G protein-coupled receptors” (Nature Communications, 2025).
# Values joined by “and” are separate entries in the source; they are usually repeats but may differ in a detail not shown here. Equal values may be shown once.
# Target: FFA1-Nluc (Homo sapiens, UniProt O14842)
# Assay: Ca2+ mobilisation antagonism of FFA1 agonists (TUG-905, T360) in Flp-In T-REx 293 cells expressing FFA1-Nluc
# Type: cell-based
# Design: expressed in transfected cells
# Procedure: Nluc-FFA1, FFA1-Nluc or untagged FFA1 Flp-In T-REx 293 cells were plated at 50,000 cells per well in poly-D-lysine coated black clear bottom 96-well plates. Cells were then cultured for 24 h until reaching confluency before culture medium was replaced with medium containing 100 ng/mL of doxycycline to induce receptor expression. Cells were cultured for a further 24 h before the assay. On the day of the assay culture medium was removed and replaced with medium containing 3 μM Fura2-AM Ca^2+ dye. […] Fura2 fluorescent emission at 520 nm following excitation with each of 340 and 380 nm was measured in regular intervals both before and after adding test compounds for a total of 90 s per well. Calcium responses were determined by taking the peak 340/380 ratio after first subtracting the ratios obtained prior to addition of test compound. […]
# Ca2+ mobilization responses were measured in
# Flp-In T-REx 293 cells expressing FFA1-Nluc. Ca2+ responses to increasing concentrations
# pre-treated with 10 μM PPTQ. The mode of antagonism for PPTQ was assessed by
# N=3 (A-D, F, H) or N=4 (E, G) independent experiments. S ource data are provided as a […]
# Chain of FFA1-Nluc (O14842 whole entry): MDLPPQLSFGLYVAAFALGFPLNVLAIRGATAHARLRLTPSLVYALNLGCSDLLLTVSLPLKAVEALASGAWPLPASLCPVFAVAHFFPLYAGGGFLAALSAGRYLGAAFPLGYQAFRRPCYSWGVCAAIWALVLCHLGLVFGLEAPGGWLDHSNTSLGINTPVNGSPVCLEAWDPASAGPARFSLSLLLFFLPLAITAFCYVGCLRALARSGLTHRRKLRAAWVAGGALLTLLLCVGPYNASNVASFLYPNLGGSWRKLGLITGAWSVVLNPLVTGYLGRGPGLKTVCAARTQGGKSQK
smiles,measurement,setting,value
COc1ccc(CCCC(C)(C)C)c(N2CCC(COc3cccc(C(CC(=O)O)C4CC4)c3)CC2)c1.O=C(O)C(F)(F)F (stereo not shown) [T360],Ca2% Response (%),"log[T360] -5, Veh (no antagonist), Sup Figure 6B/6D",93.75% and 106.25% and 103.05% and 96.95%
same,Ca2% Response (%),"log[T360] -5, with 1 μM GW1100",103.36% and 82.58% and 106.13% and 87.84% and 101.04% and 85.87%
same,Ca2% Response (%),"log[T360] -6, 10 μΜ (antagonist not given), Sup Figure 6F",76.18% and 67.98% and 49.56% and 55.62% and 87.66% and 92.64%
same,Ca2% Response (%),"log[T360] -6, Veh (no antagonist), Sup Figure 6B/6D",104.34% and 101.89% and 110.55% and 104.28% and 99.18% and 100.82%
same,Ca2% Response (%),"log[T360] -6, Veh (no antagonist), Sup Figure 6F",99.06% and 95.34% and 97.85% and 90.61% and 102.43% and 99.32%
same,Ca2% Response (%),"log[T360] -6, column head 1.0 μM (antagonist not given), Sup Figure 6F",76.88% and 59.19% and 87.71% and 76.79% and 92.25% and 102.12%
same,Ca2% Response (%),"log[T360] -6, with 1 μM GW1100",91.67% and 83.66% and 88.97% and 81.49% and 113.97% and 109.62%
same,Ca2% Response (%),"log[T360] -6.5, Veh (no antagonist), Sup Figure 6F",94.10% and 96.59% and 92.66% and 91.86% and 93.32% and 89.24%
same,Ca2% Response (%),"log[T360] -6.5, column head 1.0 μM (antagonist not given), Sup Figure 6F",60.34% and 48.04% and 59.96% and 55.53% and 61.67% and 49.63%
same,Ca2% Response (%),"log[T360] -7, Veh (no antagonist), Sup Figure 6B/6D",82.83% and 93.76% and 57.76% and 86.64% and 99.93%
same,Ca2% Response (%),"log[T360] -7, Veh (no antagonist), Sup Figure 6F",93.07% and 80.87% and 91.43% and 68.96% and 59.63% and 63.91%
same,Ca2% Response (%),"log[T360] -7, column head 1.0 μM (antagonist not given), Sup Figure 6F",3.96% and 7.11% and 12.73% and 6.84% and 9.24% and 5.08%
same,Ca2% Response (%),"log[T360] -8, 10 μΜ (antagonist not given), Sup Figure 6F",1.71% and -1.05% and -0.90%
same,Ca2% Response (%),"log[T360] -8, column head 1.0 μM (antagonist not given), Sup Figure 6F",-0.81% and -3.31% and 3.71% and 5.53%
same,Ca2% Response (%),"log[T360] -9, Veh (no antagonist), Sup Figure 6B/6D",2.38% and -2.45% and 0.48% and 0.09% and -1.34% and 1.34%
same,Ca2% Response (%),"log[T360] -11, Veh (no antagonist), Sup Figure 6B/6D",-3.34% and -2.39% and -1.53% and 0.46% and 1.72% and -0.55%
